In publication PMC10458893, “Design of Protegrin-1 Analogs with Improved Antibacterial Selectivity” (Pharmaceutics, 2023):
≈ marks a conversion by molar mass, not a printed value. Where two headings read alike, the source gives them in different places. Positions of bridges follow the written chain, without caps; N, C: chain ends. Residues, ends and D or L forms follow the SMILES beside them.

What was measured:
[1] = test system: Acinetobacter baumannii (strain XDR CI 2675); format: cell-based
Experimental: (§1) The antimicrobial activity of the peptides was determined using two-fold serial dilutions in sterile 96-well flat-bottom polystyrene microplates (Eppendorf, Hamburg, Germany) (Cat. No. 0030730011), as previously described. The following strains of bacteria were used: E. coli ATCC 25922, E. coli ML35p (ATCC collection), E. coli BW 25113 (Keio collection), Pseudomonas aeruginosa PAO1 (ATCC collection), P. aeruginosa ATCC 27853, Klebsiella pneumoniae ATCC 700603, Staphylococcus aureus 209P (ATCC collection), S. aureus ATCC 29213, and Micrococcus luteus B-1314 (VKM collection). Acinetobacter baumannii (strain XDR CI 2675) was provided by the I.M. Sechenov First Moscow State Medical University hospital. After a 24 h incubation period, the metabolic activity of the bacteria was assessed by adding 20 µL of a redox indicator, resazurin (Sigma-Aldrich, St. Louis, MO, USA), at a concentration of 0.1 mg/mL, to the wells. The plate was then incubated for a further two hours. The minimum inhibitory concentration (MIC) was determined as the lowest concentration of the peptide at which no color change in the resazurin indicator was observed. The results were presented as median values, which were determined based on at least three independent experiments carried out in triplicate.

E. coli BW 25113 = format: cell-based; conditions: two-fold serial dilutions, 24 h incubation, resazurin read-out; median of at least three independent experiments in triplicate
Experimental: as §1

all the test strains = format: cell-based; conditions: geometric mean over the 10 test strains
Experimental: as §1

E. coli ML35p = format: cell-based
Experimental: as §1

E. coli ATCC 25922 = format: cell-based; conditions: ATCC 25922, 24 h
Experimental: as §1

M. luteus B-1314 = format: cell-based, Micrococcus luteus; conditions: B-1314, 24 h
Experimental: as §1

S. aureus ATCC 29213 = format: cell-based, Staphylococcus aureus; conditions: ATCC 29213, 24 h
Experimental: as §1

S. aureus 209P = format: cell-based, Staphylococcus aureus; conditions: 24 h
Experimental: as §1

[2] = test system: freshly isolated human erythrocytes (hRBCs); assay: Hemolysis assay (hemoglobin release); format: cell-based
Text: To assess the hemolytic activity of the compounds, freshly isolated human erythrocytes (hRBCs) were used according to the methodology described in a previous study. Melittin was used as a positive peptide control that induces significant hemolysis. Isotonic phosphate buffer (PBS) served as a negative control, while 0.1% Triton X-100 solution was used as a control for complete hemolysis.

[3] = test system: K. pneumoniae ATCC 700603; format: cell-based, Klebsiella pneumoniae; conditions: ATCC 700603, 24 h
Experimental: as §1

[4] = test system: human keratinocyte cell line (HaCaT); assay: Cytotoxicity MTT assay; format: cell-based
Experimental: In order to evaluate the cytotoxicity of the peptides against a human keratinocyte cell line (HaCaT, Cat. No. 300493) (Cell Lines Service, Köln, Germany), the colorimetric 3-(4,5-dimethylthiazol-2-yl)-2,5-diphenyltetrazolium bromide (MTT) dye reduction assay was performed, as described in a previous publication. Wells containing no peptide were used as a 100% survival control. Each peptide was tested in two separate experiments to ensure the reliability of the results.

P. aeruginosa ATCC 27853 = format: cell-based, Pseudomonas aeruginosa; conditions: ATCC 27853, 24 h
Experimental: as §1

P. aeruginosa PAO1 = format: cell-based, Pseudomonas aeruginosa; conditions: PAO1, 24 h
Experimental: as §1

Row | Structure (SMILES) | MIC, A. baumannii ([1]; strain XDR CI 2675, 24 h) | MIC, E. coli BW 25113 (E. coli BW 25113) | MIC (GM), geometric mean of the peptide's MICs against all the test strains (all the test strains) | MIC, E. coli ML35p (E. coli ML35p; ML35p, 24 h) | MIC, E. coli ATCC 25922 (E. coli ATCC 25922) | MIC, M. luteus B-1314 (M. luteus B-1314) | MIC, S. aureus ATCC 29213 (S. aureus ATCC 29213) | MIC, S. aureus 209P (S. aureus 209P) | Hemolytic activity, % (64 μM) ([2]; red cells of human, 64) | MIC, K. pneumoniae ATCC 700603 [3] | Cell Viability, % (128 μM) ([4]; 18 h, 128) | MIC, P. aeruginosa ATCC 27853 (P. aeruginosa ATCC 27853) | MIC, P. aeruginosa PAO1 (P. aeruginosa PAO1) | MIC, A. baumannii ([1]; strain XDR CI 2675, two-fold serial dilutions, 24 h incubation, resazurin read-out, median of at least three independent experiments in triplicate) | MIC, E. coli ML35p (E. coli ML35p; two-fold serial dilutions, 24 h incubation, resazurin read-out, median of at least three independent experiments in triplicate) | Hemolytic activity, % (64 μM) ([2]; 64 μM peptide, 1.5 h incubation, hemoglobin release, fresh hRBCs, 0.1% Triton X-100 = complete hemolysis, mean ± SD of two independent experiments) | Cell Viability, % (128 μM) ([4]; 128 μM peptide, HaCaT, MTT assay, 18 h incubation (legend; text says 24 h), mean ± SD of two independent experiments)
1 | CC(C)C[C@H](NC(=O)[C@H](CCCNC(=N)N)NC(=O)CNC(=O)CNC(=O)[C@@H](N)CCCNC(=N)N)C(=O)N[C@H]1CSSC[C@@H](C(=O)N[C@@H](C)C(=O)NCC(=O)N[C@@H](CCCNC(=N)N)C(=O)O)NC(=O)[C@H](C(C)C)NC(=O)[C@@H]2CSSC[C@H](NC(=O)[C@H](Cc3ccc(O)cc3)NC1=O)C(=O)N[C@@H](CCCNC(=N)N)C(=O)N[C@@H](CCCNC(=N)N)C(=O)N[C@@H](CCCNC(=N)N)C(=O)N[C@@H](Cc1ccccc1)C(=O)N2 [[V16A]] (H-RGGRLCYCRRRFCVCAGR-OH; disulfide 6-15, 8-13; N-terminus and C-terminus assumed) | 0.125 µM (≈ 0.266 µg/mL) | 0.25 µM (≈ 0.532 µg/mL) | 0.4 µM | 0.125 µM (≈ 0.266 µg/mL) | 0.5 µM (≈ 1.06 µg/mL) | 0.5 µM (≈ 1.06 µg/mL) | 1 µM (≈ 2.13 µg/mL) | 1 µM (≈ 2.13 µg/mL) | 47.8 (±11.96) % | 1 µM (≈ 2.13 µg/mL) | 8.0 (± 5.35) % | 0.5 µM (≈ 1.06 µg/mL) | 0.25 µM (≈ 0.532 µg/mL) |  |  |  | 
2 | CC(C)[C@@H]1NC(=O)[C@@H]2CSSC[C@H](NC(=O)[C@H](Cc3ccc(O)cc3)NC(=O)[C@@H](NC(=O)[C@H](C)NC(=O)[C@H](CCCNC(=N)N)NC(=O)CNC(=O)CNC(=O)[C@@H](N)CCCNC(=N)N)CSSC[C@@H](C(=O)N[C@@H](C)C(=O)NCC(=O)N[C@@H](CCCNC(=N)N)C(=O)O)NC1=O)C(=O)N[C@@H](CCCNC(=N)N)C(=O)N[C@@H](CCCNC(=N)N)C(=O)N[C@@H](CCCNC(=N)N)C(=O)N[C@@H](Cc1ccccc1)C(=O)N2 [[L5A,V16A]] (H-RGGRACYCRRRFCVCAGR-OH; disulfide 6-15, 8-13; N-terminus and C-terminus assumed) | 0.25 µM (≈ 0.522 µg/mL) | 0.5 µM (≈ 1.04 µg/mL) |  | 0.5 µM (≈ 1.04 µg/mL) | 0.5 µM (≈ 1.04 µg/mL) | 4 µM (≈ 8.35 µg/mL) | >32 µM | 4 µM (≈ 8.35 µg/mL) | 3.6 (±1.72) % | 8 µM (≈ 16.7 µg/mL) | 17.0 (± 2.18) % | 1 µM (≈ 2.09 µg/mL) | 1 µM (≈ 2.09 µg/mL) |  |  |  | 
3 | CC(C)C[C@H](NC(=O)[C@H](CCCNC(=N)N)NC(=O)CNC(=O)CNC(=O)[C@@H](N)CCCNC(=N)N)C(=O)N[C@H]1CSSC[C@@H](C(=O)N[C@H](C(=O)NCC(=O)N[C@@H](CCCNC(=N)N)C(=O)O)C(C)C)NC(=O)[C@H](C(C)C)NC(=O)[C@@H]2CSSC[C@H](NC(=O)[C@H]([C@@H](C)O)NC1=O)C(=O)N[C@@H](CCCNC(=N)N)C(=O)N[C@@H](CCCNC(=N)N)C(=O)N[C@@H](CCCNC(=N)N)C(=O)N[C@@H](Cc1ccccc1)C(=O)N2 [[Y7T]] (H-RGGRLCTCRRRFCVCVGR-OH; disulfide 6-15, 8-13; N-terminus and C-terminus assumed) |  | 0.5 µM (≈ 1.05 µg/mL) |  |  | 1 µM (≈ 2.09 µg/mL) | 4 µM (≈ 8.38 µg/mL) | 16 µM (≈ 33.5 µg/mL) | 16 µM (≈ 33.5 µg/mL) | 4.0 (±2.54) % | 8 µM (≈ 16.8 µg/mL) | 15.0 (± 1.62) % | 2 µM (≈ 4.19 µg/mL) | 2 µM (≈ 4.19 µg/mL) | 0.5 µM (≈ 1.05 µg/mL) | 0.5 µM (≈ 1.05 µg/mL) |  | 
4 | CC(C)C[C@H](NC(=O)CNC(=O)CNC(=O)[C@@H](N)CCCNC(=N)N)C(=O)N[C@H]1CSSC[C@@H](C(=O)N[C@H](C(=O)NCC(=O)N[C@@H](CCCNC(=N)N)C(N)=O)C(C)C)NC(=O)[C@H](C(C)C)NC(=O)[C@@H]2CSSC[C@H](NC(=O)[C@H](Cc3ccc(O)cc3)NC1=O)C(=O)N[C@@H](CCCNC(=N)N)C(=O)NCC(=O)N[C@@H](CCCNC(=N)N)C(=O)N[C@@H](Cc1ccccc1)C(=O)N2 [Iseganan, reference compound] (H-RGGLCYCRGRFCVCVGR-NH2; disulfide 5-14, 7-12) |  |  |  |  | 0.5 µM (≈ 0.95 µg/mL) | 0.5 µM (≈ 0.95 µg/mL) | 4 µM (≈ 7.6 µg/mL) | 2 µM (≈ 3.8 µg/mL) | 99.6 (±0.54) % | 4 µM (≈ 7.6 µg/mL) | 19.5 (±7.18) % | 4 µM (≈ 7.6 µg/mL) | 8 µM (≈ 15.2 µg/mL) |  |  |  | 
5 | CC(C)[C@H](NC(=O)[C@@H]1CSSC[C@H](NC(=O)[C@H](C)NC(=O)[C@H](CCCNC(=N)N)NC(=O)CNC(=O)CNC(=O)[C@@H](N)CCCNC(=N)N)C(=O)N[C@@H](Cc2ccc(O)cc2)C(=O)N[C@H]2CSSC[C@H](NC(=O)[C@H](Cc3ccccc3)NC(=O)[C@H](CCCNC(=N)N)NC(=O)[C@H](CCCNC(=N)N)NC(=O)[C@H](CCCNC(=N)N)NC2=O)C(=O)N[C@@H](C)C(=O)N1)C(=O)NCC(=O)N[C@@H](CCCNC(=N)N)C(=O)O [[L5A,V14A]] (H-RGGRACYCRRRFCACVGR-OH; disulfide 6-15, 8-13; N-terminus and C-terminus assumed) | 0.25 µM (≈ 0.522 µg/mL) | 0.5 µM (≈ 1.04 µg/mL) |  | 0.5 µM (≈ 1.04 µg/mL) | 0.5 µM (≈ 1.04 µg/mL) | 4 µM (≈ 8.35 µg/mL) | >32 µM | 4 µM (≈ 8.35 µg/mL) | 4.2 (±1.08) % | 8 µM (≈ 16.7 µg/mL) | 38.3 (± 7.19) % | 1 µM (≈ 2.09 µg/mL) | 1 µM (≈ 2.09 µg/mL) |  |  |  | 
6 | CC[C@H](C)[C@H](NC(=O)CN)C(=O)NCC(=O)N[C@@H](C)C(=O)N[C@H](C(=O)N[C@@H](CC(C)C)C(=O)N[C@@H](CCCCN)C(=O)N[C@H](C(=O)N[C@@H](CC(C)C)C(=O)N[C@H](C(=O)N[C@H](C(=O)NCC(=O)N[C@@H](CC(C)C)C(=O)N1CCC[C@H]1C(=O)N[C@@H](C)C(=O)N[C@@H](CC(C)C)C(=O)N[C@H](C(=O)N[C@@H](CO)C(=O)N[C@@H](Cc1c[nH]c2ccccc12)C(=O)N[C@H](C(=O)N[C@@H](CCCCN)C(=O)N[C@@H](CCCNC(=N)N)C(=O)N[C@@H](CCCCN)C(=O)N[C@@H](CCCNC(=N)N)C(=O)N[C@@H](CCC(N)=O)C(=O)N[C@@H](CCC(N)=O)C(N)=O)[C@@H](C)CC)[C@@H](C)CC)[C@@H](C)O)[C@@H](C)O)C(C)C)C(C)C [Melittin, reference compound] |  |  |  |  |  |  |  |  |  |  |  |  |  |  |  | 96.0 (±7.12) % | 4.1 (± 4.07) %
7 | CC(C)C[C@H](NC(=O)[C@H](CCCNC(=N)N)NC(=O)CNC(=O)CNC(=O)[C@@H](N)CCCNC(=N)N)C(=O)N[C@H]1CSSC[C@@H](C(=O)N[C@@H](CCCNC(=N)N)C(=O)NCC(=O)N[C@@H](CCCNC(=N)N)C(=O)O)NC(=O)[C@H](C(C)C)NC(=O)[C@@H]2CSSC[C@H](NC(=O)[C@H]([C@@H](C)O)NC1=O)C(=O)N[C@@H](CCCNC(=N)N)C(=O)N[C@@H](CCCNC(=N)N)C(=O)N[C@@H](CCCNC(=N)N)C(=O)N[C@@H](Cc1ccccc1)C(=O)N2 [[Y7T,V16R]] (H-RGGRLCTCRRRFCVCRGR-OH; disulfide 6-15, 8-13; N-terminus and C-terminus assumed) | 4 µM (≈ 8.61 µg/mL) | 8 µM (≈ 17.2 µg/mL) |  | 4 µM (≈ 8.61 µg/mL) | 8 µM (≈ 17.2 µg/mL) | 4 µM (≈ 8.61 µg/mL) | >32 µM | >32 µM | 1.4 (±0.66) % | >32 µM | 72.8 (± 5.46) % | >32 µM | >32 µM |  |  |  | 
